The values that follow come from patent US9018188B2, “MicroRNA inhibitors” (Ottawa Hospital Research Institute, priority 2011, dated 2015).

In this test the test system is miR-133. Briefly: miR-133 biosensor luciferase assay in C2C12 myoblast clones. The test is classed as cell-based. The following applies: C2C12 clone A10, 48 hours in growth media; TGF-β 10 ng/mL, Insulin 850 nM, IBMX 0.5 mM, AICAR 0.5 mM, Dexamethasone 1. An excerpt: The design of the miR-133 biosensor is based on the principle that recognition of microRNA target sites in 3′UTR by microRNA/RISC leads to the inhibition of the translation of the target mRNAs. An artificial 3′UTR containing optimized miR-133 target sites in tandem was designed and cloned downstream of the open reading frames of firefly luciferases and GFP, which in together function as miR-133 biosensor (FIG. 9A), in a lentiviral vector. C2C12 myoblast clones were infected with lentiviruses carrying the miR-133 biosensor and selected for stable expression of the reporter construct. Activity of potential modulators or miR-133 is tested and read as a reverse correlation between miR-133 functionality and luciferase/GFP intensities. The construct can be used for live-cell imaging (in vitro and in vivo) and allows real-time detection.
Two miR-133 biosensor plasmids were constructed—pCMV-FireflyLuc_miR133TS_EF1_Puro and pCMV-RenillaLuc—133TS_EF1_Puro. In the pCMV-FireflyLuc—133TS_EF1_Puro plasmid, five tandem miR-133 target sites (miR133TS; 5′-[…]-3′, SEQ ID NO:22) was cloned downstream of a firefly luciferase ORF (with a stop codon), which is driven by a CMV promoter. These miR-133 target sites in whole serve as an artificial 3′ UTR of firefly luciferase transcript. The “GGACCAAA” sequence in the miR-133 target sites is complementary to the nucleotide positions 1-8 in miR-133a and miR-133b. The “TAGCTGGTTG” sequence in the miR-133 target sites is complementary to the nucleotide positions 13-22 in miR-133a and miR-133b. The remaining sequence “CCA” sequence in the middle will not anneal to the miR-133a or miR-133b, which will form a “bulge” structure when miR-133a/b anneal to the RNA transcript of miR-133 target sites. This fireflyLuc_miR133TS cassette was further cloned into a lentivirus backbone. In the pCMV-RenillaLuc—133TS_EF1_Puro plasmid, the firefly luciferase ORF was replaced by a renilla luciferase ORF. pCMV-FireflyLuc_miR133TS_EF1_Puro and pCMV-RenillaLuc—133TS_EF1_Puro plasmids were used to generate lentivirus particles in 293T cells, which were used to infect C2C12 myoblasts. Infected C2C12 myoblasts were selected by Puromycin (2 mg/L) and clonally expanded. C2C12 clones, C11 and C3, were used in subsequent experiments.
In one experiment, a C2C12 clone C11 (25,000 cells per well on 24-well plates), was transfected with 0.5 nM and 5 nM miR-133 mimetics (Life Technologies/Ambion), which can be processed into mature miR-133 in cells. […] Both experiments were performed with 6 replicates and Z-scores above 0.5 were achieved.
In one experiment, a C2C12 clone (A10; 25,000 cells per well in 24-well plates) was treated with drugs and biologics for 48 hours in growth media. […]
In the case of Insulin, the “effect on miR-133 by luciferase assays” value was “inhibitors of miR-133”.
For the compound `NC(=O)c1ncn([C@@H]2O[C@H](CO)[C@@H](O)[C@H]2O)c1N` [AICAR, 5′ amino-1-βD-ribofuranosyl-imidazole-4-carboxamide, reference compound], the “effect on miR-133 by luciferase assays” value is recorded as “enhancers of miR-133”.
With TGF-β the entry was “inhibitors of miR-133”; with `CC(C)Cn1c(=O)n(C)c(=O)c2[nH]cnc21` [IBMX, 3-isobutyl-1-methylxanthine, reference compound], “enhancers of miR-133”.
